Measurements from patent US20060008491A1, “Eremophilone and eremophilone derivatives for pest control” (priority 2002, published 2006).

Tested on: Coptotermes acinaciformis
Assay type: in vivo
Conditions: HPLC fractions of steam distilled oil
Experimental: A number of samples were assessed for termiticidal activity. The steam distilled oil product was separated into thirty fractions using reverse phase preparative HPLC, methanol:water (80:20). Fractions were re-analysed by GC-MS and recombined to provide eight fractions. Three fractions contained pure components, the other fractions contained mixtures of minor components of the oil. Six fractions together with the whole oil distillate, and the methanol and hexane extracts were tested on the workers of the termites Nasutitermes walkeri and Coptotermes acinaciformis as follows.
Twenty uniform termite workers were transferred to 90 mm diam. petri dishes lined with the same diameter moistened filter paper (Whatman No 2). […]
A 5 ml aliquot was applied to each petri dish with a Potter precision spray tower as described by Herron et al (995). The average weight of the solution sprayed on each dish was calculated to be 3.95 mg/cm^2. […] Mortality was normally recorded 24 h after treatment. […] Probit analysis was carried out for dose-mortality data and heterogeneity of regressions was determined by the Pearson chi-squared characteristic.

Q: Which “termiticidal activity” value does the source give for `C=C(C)[C@@H]1CC(=O)C2=CCC[C@H](C)[C@@]2(C)C1` [EM-1, Eremophilone] here?
A: significant termiticidal activity
